Read-outs that look alike come from different tables or passages of the source.
Legend:
[1] = tested on: human platelets; conditions: cited from earlier work; for inhibition of L-arginine uptake into platelets: 300 μM extracellular concentration, L-arginine 30 μM
[2] = tested on: uterine muscle strips from gravid rats; conditions: L-arginine added to extracellular fluid; cited from earlier work
[3] = tested on: cortical spreading depression; conditions: rat, in vivo; cited from earlier work
[4] = tested on: human semen specimens with low motility; conditions: between 1.0 and 4.0 mM, in vitro; cited from earlier work
[5] = tested on: experimental diabetes mellitus; conditions: long-term oral administration in marked amounts; cited from earlier work
[6] = tested on: endothelium-dependent vasodilation; conditions: L-arginine infusion, humans with hypercholesterolemia; cited from earlier work
[7] = tested on: spermatocytes of infertile men; conditions: 4 to 20 grams of arginine daily, oral; cited from earlier work
[8] = tested on: hypercholesterolemic rabbit models; conditions: sixfold enrichment of dietary L-arginine; cited from earlier work
[9] = rat; cited from earlier work
[10] = tested on: apoptosis; conditions: L-arginine-deficient (10 μM) environment; cited from earlier work
[11] = tested on: activated c-NOS; conditions: plasma L-arginine above normal fasting 75 to 90 μM; cited from earlier work
[12] = parenteral injection, rats; cited from earlier work
[13] = cited from earlier work
[14] = tested on: renal vasodilatory responses; conditions: aged compared to young hypertensives; cited from earlier work
[15] = Total forearm bleeding time during oral L-citrulline; assay type: in vivo, human
Description: The same subject that was studied in Example 1 was studied by total bleeding time determinations before and during ingestion of daily doses of L-citrulline, in two divided subdoses. Forearm bleeding times were done by 3 to 5 mm cuts about 1 mm deep made perpendicular to the fold of the elbow during template methodology and a sphygmomanometer cuff maintained near 40 mm Hg pressure. Control bleeding times were 51/2 minutes. Bleeding time rose to 131/2 minutes after 2 days of ingestion of 8.5 grams daily. Bleeding time was prolonged at 13 minutes after 4 weeks of ingestion of 5.4 grams of L-citrulline daily in 2 divided doses.

[16] = in vivo; cited from earlier work
[17] = Plasma ultrafiltrate L-arginine level after oral L-citrulline (colorimetric assay); assay type: in vivo, human
Description: The one FIGURE contains graphs of plasma ultrafiltrate levels of L-arginine in the fasting state (9-10 hours) related to the daily amounts of L-citrulline ingested in two divided doses. Also depicted are levels 2-hours after ingestion of morning doses of L-citmulline (EXAMPLE 1).
A novel colorimetric method for the quantitative assay of free L-arginine in blood plasma was developed. The method measures the color product from monosubstituted guanidines without and with L-arginase incubation to destroy the arginine and the potential guanido color product that would be derived from L-arginine. The photometric decrease in guanido color product measures specifically the concentration of L-arginine. The L-arginine methodology was applied to ultrafiltrates of blood plasma after ultrafiltrations of separated plasma samples were done at 4° Celsius.
Blood plasma levels after 9 to 10 hours of overnight fasting averaged 83.0±1.1 μM (mean±SD of 3 determinations). Two hours after ingestion of 3.0 grams of L-citrulline in capsular form, plasma L-arginine level rose by […] to 132.7 μM. Overnight fasting plasma levels of L-arginine measured 125.2, 98.1, 90.8, 114.2, and 120.0 μM after ingestion of L-citrulline for 6 days at 6.0 grams, for 13 days at 2.4 grams, for 6 days at 3.4 grams, for 7 days at 6.8 grams, and for 2 days at 8.5 grams, respectively, in 2 divided doses (morning and nightly).
(§1) The subject cited in Example 1 and Example 2 above subsequently undertook oral supplementation with 4.5 grams of L-citrulline daily in 2 divided doses (morning and nightly) of 1.8 grams (in 2 capsules) and 2.7 grams (in 3 capsules) for 4 months. They continued their usual food intake. At the end of the 4-month period of supplementation with 4.5 grams daily, […] 9-hour overnight fasting plasma concentration of L-arginine measured at 102.3 μM, assayed in plasma within 30 minutes of venous blood sampling. This increased fasting plasma level contrasted from their lower normal fasting values of 83.0±1.1 μM measured months before, an increment about 20 μM greater.

[18] = rat, in vivo; cited from earlier work
[19] = tested on: lacunar infarction; test: Recurrence of symptomatic lacunar infarction on daily citrulline; assay type: in vivo, human; conditions: 4.5 grams daily in two subdoses for many months
Text: Aspirin in small daily doses is commonly recommended as antiplatelet and antithrombotic agent in cardiovascular disease, particularly for the secondary prevention of coronary artery thrombosis and myocardial infarction, and for cerebrovascular ischemic manifestations such as lacunar infarctions. This subject had experienced, five-years earlier, an acute episodic event of symptomatic lacunar infarction with virtual recovery.

[20] = tested on: brain functions; test: Mental alertness, intellectual performance and mental fatigue on L-citrulline; assay type: in vivo, human; conditions: 4.5 grams daily, 4 months
Description: as §1
(§2) The apparent nootropic effects from oral intake of L-citrulline are consistent with the inventive beneficial effects of L-citrulline as exogenous precursor in order to improve brain functions that may be mediated by enhanced L-arginine, creatine, and phosphocreatine stores within the central nervous system.

[21] = tested on: migraine pains; test: Migraine pain with oral L-citrulline; assay type: in vivo, human
Description: […] Their body weight was 59 kg. The subject gave a history of migraine pains with and without aura for about 15 years. Currently, the migraine pains were recurring about once to a few times weekly. Their parent had experienced migraine headaches for many years.
Shortly after the onset of a severe headache attack, the subject ingested 2.7 grams of L-citrulline, followed by another 2.7 grams about 1 hour later.
(§3) Subsequently, the person cited in Example 4 followed an oral regimen of 3.6 grams of L-citrulline daily in two subdoses of 1.8 grams (morning and evening) for seven weeks. The frequency and intensity of the migraine pain episodes were reduced over this interval.

[22] = Tolerability of oral L-citrulline (symptoms, blood count, serum chemistry); assay type: in vivo, human
Text: as §3, §1, §2

[23] = tested on: migraine aura; conditions: inhalation of small amounts, some cases; cited from earlier work
[24] = tested on: rabbit model of angioplasty; conditions: L-arginine hydrochloride 2.25% in drinking water; cited from earlier work
[25] = tested on: platelet activity; conditions: cited from earlier work; for total bleeding time: low-dose / small therapeutic doses orally, humans
[26] = tested on: muscle fatigue; conditions: oral daily supplementation, healthy humans; cited from earlier work
[27] = tested on: hippocampal brain tissue; conditions: extracellular creatine increased by 3 mM; cited from earlier work
[28] = tested on: osteoporosis; conditions: oral supplements in large amounts; cited from earlier work
[29] = 4-month regimen of 4.5 grams daily

NC(=O)CC[C@H](N)C(=O)O [L-glutamine]
inhibition of L-arginine uptake into platelets [1]: inhibitory

N=C(N)NCCC[C@H](N)C(=O)O [L-arginine]
muscle relaxation and quiescence [2]: dose-dependent muscle relaxation, and muscle quiescence | oligemic vasoconstriction following cortical spreading depression [3]: reduces the oligemic vasoconstriction | sperm motility [4]: enhances sperm motility in a concentration-dependent manner | Km ([1]; read-out: apparent Km for uptake into human platelets): 26 ± 4 µM | glomerular hyperfiltration and abnormal filtration fraction hemodynamics [5]: prevents the glomerular hyperfiltration | proteinuria [5]: ameliorates the proteinuria | impaired endothelium-dependent vasodilation [6]: corrected | total sperm counts and motility rates [7]: may improve total sperm counts and motility rates | endothelial adhesiveness and atherogenesis [8]: markedly inhibits endothelial adhesiveness and atherogenesis | increase in plasma arginine levels [8]: twofold increase | nitric oxide-dependent vasodilation [8]: improves nitric oxide-dependent vasodilation | brain tissue arginine level relative to plasma levels [9]: 20 to 30% | protection from apoptosis [10]: protects cells from apoptosis | endothelial nitric oxide production [11]: augments endothelial nitric oxide production | time for plasma and tissue concentrations to return to normal [12]: 2 to 3 h | time to return to near fasting values ([13]; 24.8 grams L-arginine, normal adults): 3 h | peak plasma arginine relative to fasting values ([13]; 24.8 grams L-arginine, fasting 90±6 μM): about 3.6 times | plasma citrulline levels ([13]; oral 3-gram single doses of arginine, healthy humans): without a change in plasma citrulline levels | plasma arginine levels ([13]; oral 3-gram single doses, healthy humans): raises plasma arginine levels acutely | time of peak plasma arginine ([13]; single protein meal of about 30 to 50 grams (about 1 to 2 grams arginine)): 2 to 3 h | time to return to near fasting levels ([13]; single protein meal of about 30 to 50 grams): 5 to 6 h | renal vasodilatory responses [14]: blunted in aged compared to young hypertensives

NC(=O)NCCC[C@H](N)C(=O)O [L-citrulline]
bleeding time ([15]; after 2 days of 8.5 grams daily, control 51/2 minutes): 131/2 | prolongation of total bleeding time ([15]; daily doses of 5.4 grams to 8.5 grams): about two-fold | blood-brain barrier passage [16]: readily passes the blood-brain barrier | increment in fasting plasma L-arginine ([17]; 4 months at 4.5 grams daily vs 83.0±1.1 μM before): about 20 μM | metabolic adaptation to long-continued supplementation ([17]; 4 months, 4.5 grams daily): no significant metabolic adaptation | elevation of plasma L-arginine versus equivalent L-arginine or protein meals ([17]; comparison with literature): more efficient and longer lasting | blood plasma levels of L-arginine after overnight fasting (general statement) ([17]; daily dosage in two divided subdoses, 9 to 10 hours fasting): greater blood plasma levels of L-arginine even after overnight fasting | blood plasma concentrations of free L-arginine (general statement) ([17]; single oral doses of 3.0 grams or more in capsules): promptly raised to much higher levels | plasma L-arginine level rise ([17]; two hours after 3.0 grams L-citrulline in capsules, person, 102 kg, fasting 83.0±1.1 μM before): 62.4% | liver uptake in portal venous blood [18]: Without appreciable liver uptake | recurrence of lacunar infarction [19]: No manifestations of recurrence | mental alertness and intellectual performance [20]: enhanced | mental fatigue [20]: less mental fatigue | migraine pain intensity and duration ([21]; 2.7 grams at onset plus 2.7 grams about 1 hour later): markedly lessened in intensity and in duration | nausea during migraine attack ([21]; 2.7 grams plus 2.7 grams about 1 hour later): Much less nausea | frequency and intensity of migraine pain episodes ([21]; 3.6 grams daily in two subdoses, seven weeks): reduced | adverse side-effects ([22]; 3.6 grams daily for seven weeks, person): No adverse side-effects | adverse symptoms [22, 29]: No adverse symptoms | complete blood count and blood serum chemistry tests [22, 29]: remained normal | adverse symptoms or untoward signs ([22]; Example 1 study, several weeks): No adverse symptoms or untoward signs

CCCCCON=O [amyl nitrite]
migraine aura [23]: temporarily reversed migraine aura in some cases

NCCC[C@H](N)C(=O)O [L-ornithine]
inhibition of L-arginine uptake into platelets [1]: inhibitory

NCCCC[C@H](N)C(=O)O [L-lysine]
inhibition of L-arginine uptake into platelets [1]: inhibitory

Cl.N=C(N)NCCC[C@H](N)C(=O)O [L-arginine hydrochloride]
arterial thickening [24]: reduced thickening | increase of plasma arginine levels [24]: about 2.6 times | neoendothelium-dependent arterial muscle relaxation [24]: enhanced neoendothelium-dependent arterial muscle relaxation

CC(=O)Oc1ccccc1C(=O)O [aspirin, acetylsalicylic acid]
total bleeding time [25]: prolonged | total bleeding time ([25]; listed as acetylsalicylic acid (aspirin)): prolongs the total bleeding time | platelet activity ([25]; low-dose intake in humans): inhibits platelet activity

CN(CC(=O)O)C(=N)N [creatine]
muscle fatigue with physical exercise [26]: lessened muscle fatigue | muscle stores of free creatine and phosphocreatine [26]: greater muscle stores | ATP levels [27]: without change in ATP levels | anoxia-induced neuronal damage [27]: attenuated | neurocyte viability after anoxic periods [27]: greater neurocyte viabilities | neuronal free creatine and phosphocreatine levels [27]: large increases

O=C(O)O [calcium carbonate]
skeletal bone loss in osteoporosis [28]: decreased the skeletal bone loss
